The text below walks through data of paper PMC10104807, “Modulation of tau tubulin kinases (TTBK1 and TTBK2) impacts ciliogenesis” (Scientific Reports, 2023).

One assay deals with T1, TSSK3 (Homo sapiens, UniProt Q96PN8).
T1 construct: purchased Eurofins
T1 sequence (Q96PN8 1-268): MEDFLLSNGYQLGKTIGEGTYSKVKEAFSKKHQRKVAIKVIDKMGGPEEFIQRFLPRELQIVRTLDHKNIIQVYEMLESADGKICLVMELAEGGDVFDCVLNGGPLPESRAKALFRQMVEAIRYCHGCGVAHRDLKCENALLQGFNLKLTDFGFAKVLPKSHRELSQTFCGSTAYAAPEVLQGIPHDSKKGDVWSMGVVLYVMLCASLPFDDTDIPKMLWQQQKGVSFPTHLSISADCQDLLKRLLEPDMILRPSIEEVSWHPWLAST
The experiment in a line: Eurofins enzymatic radiometric kinase assay. It is filed as biochemical. Particulars: ATP at Km, duplicate. The method, then:
(§1) The column labeled “# < 10 PoC in enzyme panel” in Table 1 reports the number of kinases in this 17-member panel inhibited > 90% by each analog.
(§2) Details about the substrate used, protein constructs, controls, and assay protocol for these kinase assays are available at the Eurofins website: https://www.eurofinsdiscoveryservices.com. Reaction Biology Corp. (RBC) radiometric HotSpot kinase assays were carried out at the Km value for ATP in dose–response (10-pt curve) format for MYLK4, RIPK5, and YSK4 in Table S2. Details about the substrate used, protein constructs, controls, and assay protocol for these kinase assays are available at the RBC website: https://www.reactionbiology.com/list-kinase-targets-us-facility. SignalChem developed an ADP-Glo assay to test for enzymatic inhibition of PIKfyve in dose–response (10-pt curve) format in duplicate.

Another assay deals with T2, TAOK1 (Homo sapiens, UniProt Q7L7X3).
T2 construct: purchased Eurofins
T2 sequence (Q7L7X3 1-1001): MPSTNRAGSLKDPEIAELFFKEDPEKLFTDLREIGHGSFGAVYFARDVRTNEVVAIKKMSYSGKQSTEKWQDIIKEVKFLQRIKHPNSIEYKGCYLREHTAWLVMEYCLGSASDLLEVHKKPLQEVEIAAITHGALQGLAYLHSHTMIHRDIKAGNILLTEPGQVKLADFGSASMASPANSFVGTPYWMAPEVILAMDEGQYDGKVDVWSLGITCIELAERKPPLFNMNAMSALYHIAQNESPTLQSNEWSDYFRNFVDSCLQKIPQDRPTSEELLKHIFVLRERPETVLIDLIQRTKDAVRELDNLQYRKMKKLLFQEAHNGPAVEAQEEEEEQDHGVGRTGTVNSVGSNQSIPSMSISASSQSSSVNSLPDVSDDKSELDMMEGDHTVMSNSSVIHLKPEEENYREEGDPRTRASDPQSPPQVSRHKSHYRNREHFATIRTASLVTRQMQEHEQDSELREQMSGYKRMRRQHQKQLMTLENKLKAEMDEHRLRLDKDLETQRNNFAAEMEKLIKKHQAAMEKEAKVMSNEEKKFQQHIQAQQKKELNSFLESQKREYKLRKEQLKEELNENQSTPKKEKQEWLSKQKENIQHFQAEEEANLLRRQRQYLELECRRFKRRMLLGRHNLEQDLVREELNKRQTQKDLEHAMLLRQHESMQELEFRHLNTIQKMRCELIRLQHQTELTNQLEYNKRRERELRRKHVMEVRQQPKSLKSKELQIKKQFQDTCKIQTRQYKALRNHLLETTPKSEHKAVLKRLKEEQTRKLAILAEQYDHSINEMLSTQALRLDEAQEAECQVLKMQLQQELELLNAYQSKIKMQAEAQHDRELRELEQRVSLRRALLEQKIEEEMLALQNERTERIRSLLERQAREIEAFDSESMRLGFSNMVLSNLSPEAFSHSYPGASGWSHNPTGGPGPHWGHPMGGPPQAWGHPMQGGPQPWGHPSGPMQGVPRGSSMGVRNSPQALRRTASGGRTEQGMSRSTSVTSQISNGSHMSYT
The experiment in a line: Eurofins enzymatic radiometric kinase assay. It is filed as biochemical. Particulars: ATP at Km, duplicate. As to the method: as §1, §2

Assay [1] concerns 403 wild-type (WT) human kinases. The experiment in a line: DiscoverX scanMAX kinome-wide selectivity. It is filed as binding. Particulars: for # scanMAX kinases with PoC < 10: 1 μM; for S10(1 μM): share of 403 WT human kinases with PoC < 10 at 1 μM. From the text: This panel includes 403 wild-type (WT) human kinases but not TTBK1/2. […] Substantial overlap between the MRC and DiscoverX scanMAX kinase panels allows the comparison of results for the same kinases in two different assay formats (enzymatic versus binding, respectively) at the same concentration. Selectivity results are included in two columns within Table 1. […] The rightmost column converts this selectivity score into the number of kinases with a PoC < 10 in the scanMAX panel.
The Eurofins DiscoverX Corporation scanMAX assay platform was employed to assess the selectivity of specific analogs at a single concentration (1 µM). As described previously, this assay platform profiles a compound against 403 wild-type human kinases and delivers percent of control (PoC) values. These percent of control values are included in Table 1 and corresponding kinome tree diagrams as well as tables for each analog included in Fig. S1.

A further assay concerns the target T3, TTBK2 kinase domain (Homo sapiens, UniProt Q6IQ55).
T3 construct: Either the TTBK1 or TTBK2 kinase domain at 2 µM
The experiment in a line: Thermal shift assay. It is filed as binding. Particulars: kinase domain 2 µM, inhibitor 10 µM. The method, then:
Either the TTBK1 or TTBK2 kinase domain at 2 µM in 10 mM HEPES pH 7.5 and 500 mM NaCl was mixed with the inhibitors at 10 µM in the presence of SyPRO orange dye (Invitrogen). A Real-Time PCR Mx3005p machine (Stratagene) was used to measure the fluorescence spectrum. The Tm shift assays and data evaluation for melting temperatures were performed according to the previously described protocol.

In assay [2] the target is 17-member enzymatic kinase assay panel. Briefly: 17-member enzymatic kinase panel, number of kinases inhibited. It is filed as biochemical. Particulars: 1 μM; of 17 kinases.

T3 sequence (Q6IQ55 21-284 limits assumed): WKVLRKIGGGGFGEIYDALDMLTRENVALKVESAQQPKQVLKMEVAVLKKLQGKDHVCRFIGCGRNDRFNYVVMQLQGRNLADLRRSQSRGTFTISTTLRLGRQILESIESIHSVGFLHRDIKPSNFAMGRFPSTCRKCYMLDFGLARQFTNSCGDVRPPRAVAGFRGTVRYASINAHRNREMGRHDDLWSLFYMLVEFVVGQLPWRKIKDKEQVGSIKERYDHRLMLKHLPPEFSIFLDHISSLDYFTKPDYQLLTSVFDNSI

Broadly, the ΔTm is the shift of the melting midpoint relative to a reference. `CC(C)(O)C#Cc1ccc2[nH]c3c(c2c1)-c1nc(N)ncc1CCC3` [AMG28, reference compound]: the “TSSK3 PoC at 1 μM” value at TSSK3 amounted to 1 PoC. Also, on TAOK1, the “TAOK1 PoC at 1 μM” value is recorded as 2 PoC. For the same compound, in assay [1], the “# scanMAX kinases with PoC < 10” value is on record as 21 and the “S10(1 μM)” value worked out at 0.052. Moreover, the ΔTm at 10 µM at TTBK2 kinase domain came to 6.2 °C.
In the case of `CC(C)(O)C#Cc1ccc2[nH]c3c(c2c1)-c1nc(N)ncc1CC3` [Compound 1], the “TSSK3 PoC at 1 μM” value at TSSK3 turned out to be 11 PoC. In addition, the “TAOK1 PoC at 1 μM” value at TAOK1 came out at 5 PoC. Moreover, in assay [2], the “# kinases < 10 PoC in enzyme panel” value came out at 2. Further, in assay [1], the “# scanMAX kinases with PoC < 10” value was determined as 20 and the “S10(1 μM)” value was found to be 0.05. Also, the “ΔTm TTBK2” value at TTBK2 kinase domain is 5.6 °C.
As to `CC(C)(O)C#Cc1ccc2[nH]c3c(c2c1)-c1nc(N)ncc1CCCC3` [Compound 2], on TSSK3, the “TSSK3 PoC at 1 μM” value turned out to be 120 PoC. Moreover, the “TAOK1 PoC at 1 μM” value at TAOK1 came to 65 PoC. In addition, the “# kinases < 10 PoC in enzyme panel” value in assay [2] came to 1.
In the case of `CC(C)(O)C#Cc1ccc2[nH]cc(-c3ccnc(N)n3)c2c1` [Compound 3], the “TSSK3 PoC at 1 μM” value on TSSK3 is listed as 5 PoC. Also, the “TAOK1 PoC at 1 μM” value on TAOK1 came out at 7 PoC. The “# kinases < 10 PoC in enzyme panel” value in assay [2] came to 3. In addition, in assay [1], the “# scanMAX kinases with PoC < 10” value was determined as 34 and the “S10(1 μM)” value amounted to 0.084. Moreover, the “ΔTm TTBK2” value on TTBK2 kinase domain came out at 6.2 °C.
Turning to `COC(C)(C)C#Cc1ccc2[nH]c3c(c2c1)-c1nc(N)ncc1CCC3` [Compound 11], the “TSSK3 PoC at 1 μM” value at TSSK3 worked out at 75 PoC. Also, the “TAOK1 PoC at 1 μM” value at TAOK1 was 73 PoC. The “# kinases < 10 PoC in enzyme panel” value in assay [2] is 1.
